Structures can show the parent of a compound that is named as a salt.
Tests used:
human B1R receptor = biological target: T1, human B1R receptor (Homo sapiens, UniProt P46663); test: Functional study on the bradykinin receptor 1 (B1R), FLIPR Ca2+ assay, hB1R cells; type: cell-based; settings: agonist Lys-Des-Arg9-bradykinin 0.5 nM, % inhibition compared with the maximum achievable inhibition; for inhibition at 10 µM: CHO-K1, test substance 10 μM, read-out: B1R Antagonism, human [10 μM] % Inhibition; for B1R Antagonism, human [10 μM] % Inhibition: test substance 10 μM, hB1R CHO K1 cells
T1 construct: host or cells: CHO K1 cells (Chinese hamster ovary), stably transfected
T1 sequence (P46663 1-353): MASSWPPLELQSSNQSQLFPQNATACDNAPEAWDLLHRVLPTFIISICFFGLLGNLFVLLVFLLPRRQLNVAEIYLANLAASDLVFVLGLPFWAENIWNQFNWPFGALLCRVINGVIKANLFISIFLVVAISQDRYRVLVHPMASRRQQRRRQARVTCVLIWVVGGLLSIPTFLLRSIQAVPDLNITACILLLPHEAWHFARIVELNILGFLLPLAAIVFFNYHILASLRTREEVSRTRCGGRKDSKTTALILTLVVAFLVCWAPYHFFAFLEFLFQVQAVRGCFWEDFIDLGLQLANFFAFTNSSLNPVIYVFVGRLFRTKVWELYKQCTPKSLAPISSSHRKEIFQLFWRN
Method in brief: (§1)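 FLIPR Ca2+ assay in recombinant CHO K1 cells (human or rat B1R), Fluo-4 dye; 10 μM compound, 10 min, then EC-level agonist per species (0.5 nM Lys-Des-Arg9-BK human / 100 nM Des-Arg9-BK rat). Output: % inhibition vs maximum.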

B1R receptor of the rat = biological target: T2, B1R receptor of the rat (Rattus norvegicus, UniProt P97583); test: Functional study on the bradykinin receptor 1 (B1R), FLIPR Ca2+ assay, rB1R cells; type: cell-based; settings: agonist Des-Arg9-bradykinin 100 nM, % inhibition compared with the maximum achievable inhibition; for inhibition at 10 µM: CHO-K1, test substance 10 μM, read-out: B1R Antagonism, rat [10 μM] % Inhibition; for B1R Antagonism, rat [10 μM] % Inhibition: test substance 10 μM, rB1R CHO K1 cells
T2 construct: host or cells: CHO K1 cells (Chinese hamster ovary), stably transfected
T2 sequence (P97583 1-337): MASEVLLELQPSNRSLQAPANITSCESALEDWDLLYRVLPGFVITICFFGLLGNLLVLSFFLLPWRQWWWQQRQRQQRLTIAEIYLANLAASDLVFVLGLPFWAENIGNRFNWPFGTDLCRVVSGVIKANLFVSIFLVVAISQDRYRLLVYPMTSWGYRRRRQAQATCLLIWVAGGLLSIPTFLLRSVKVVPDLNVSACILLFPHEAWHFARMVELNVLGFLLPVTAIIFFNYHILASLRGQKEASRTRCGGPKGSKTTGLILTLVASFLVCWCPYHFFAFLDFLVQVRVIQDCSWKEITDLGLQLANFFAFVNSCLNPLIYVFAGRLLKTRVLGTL
Method in brief: as §1

inhibition at 10 µM (human B1R receptor)	inhibition at 10 µM (B1R receptor of the rat)	B1R Antagonism, human [10 μM] % Inhibition (human B1R receptor)	B1R Antagonism, rat [10 μM] % Inhibition (B1R receptor of the rat)	Compound
-10.1%	102%	–	–	COc1cc(C)c(S(=O)(=O)N2CCCCC2COCC(=O)N(Cc2ccccc2)c2cc(C)ccn2)c(C)c1 (stereo not drawn) [Example 507, N-benzyl-2-((1-(4-methoxy-2,6-dimethylphenylsulfonyl)piperidin-2-yl)methoxy)-N-(4-methylpyridin-2-yl)acetamide]
22.1%	100%	–	–	COc1cc(C)c(S(=O)(=O)N2CCCCC2COCC(=O)Nc2ccc(N3CCOCC3)cc2)c(C)c1 (stereo not drawn) [Example 438, 2-((1-(4-methoxy-2,6-dimethylphenylsulfonyl)piperidin-2-yl)methoxy)-N-(4-morpholinophenyl)acetamide]
-24.8%	36.5%	–	–	CN1CCC(N2CCN(C(=O)COCC3CCCCN3S(=O)(=O)c3cccc4cnccc34)CC2)CC1 (stereo not drawn) [Example 176, 2-((1-(isoquinolin-5-ylsulfonyl)piperidin-2-yl)methoxy)-1-(4-(1-methylpiperidin-4-yl)piperazin-1-yl)ethanone dihydrochloride]
100%	80.7%	–	–	COc1cc(C)c(S(=O)(=O)N2CCC[C@@H]2COCC(=O)N2CCN(C3CCN(C)CC3)CC2)c(C)c1C [Example 140, (R)-2-((1-(4-methoxy-2,3,6-trimethylphenylsulfonyl)pyrrolidin-2-yl)methoxy)-1-(4-(1-methylpiperidin-4-yl)piperazin-1-yl)ethanone dihydrochloride]
48.4%	107%	–	–	COc1cc(C)c(S(=O)(=O)N2CCCCC2COCC(=O)Nc2cc(C)[nH]n2)c(C)c1 (stereo not drawn) [Example 535, 2-((1-(4-methoxy-2,6-dimethylphenylsulfonyl)piperidin-2-yl)methoxy)-N-(5-methyl-1H-pyrazol-3-yl)acetamide]
100%	100%	–	–	COc1cc(C)c(S(=O)(=O)N2CCCCC2COCC(=O)N2CCN(c3ccncc3)CC2)c(C)c1 (stereo not drawn) [Example 147, 2-((1-(4-methoxy-2,6-dimethylphenylsulfonyl)piperidin-2-yl)methoxy)-1-(4-(pyridin-4-yl)piperazin-1-yl)ethanone]
105%	101%	–	–	COc1cc(C)c(S(=O)(=O)N2CCCCC2COCC(=O)N(C)[C@H]2CCN(Cc3ccccc3)C2)c(C)c1 (stereo partly drawn) [Example 364, N—((S)-1-benzylpyrrolidin-3-yl)-2-((1-(4-methoxy-2,6-dimethylphenylsulfonyl)piperidin-2-yl)methoxy)-N-methylacetamide]
103%	97.9%	–	–	COc1cc(OC)cc(N2CCN(C(=O)COCC3CCCN3S(=O)(=O)c3c(C)cc(OC)cc3C)CC2)c1 (stereo not drawn) [Example 503, 1-(4-(3,5-dimethoxyphenyl)piperazin-1-yl)-2-((1-(4-methoxy-2,6-dimethylphenylsulfonyl)pyrrolidin-2-yl)methoxy)ethanone]
69.1%	92.4%	–	–	CN1CCN(Cc2ccc(CNC(=O)COCC3CCCN3S(=O)(=O)c3c(Cl)cc(Cl)cc3Cl)cc2)CC1 (stereo not drawn) [Example 45, N-[4-(4-methyl-piperazin-1-ylmethyl)-benzyl]-2-[1-(2,4,6-trichloro-phenylsulfonyl)-pyrrolidin-2-ylmethoxy]-acetamide]
47.1%	101%	–	–	COc1cc(C)c(S(=O)(=O)N2CCCCC2COCC(=O)N2CCN(c3nc(-c4ccccc4)cs3)CC2)c(C)c1 (stereo not drawn) [Example 402, 2-((1-(4-methoxy-2,6-dimethylphenylsulfonyl)piperidin-2-yl)methoxy)-1-(4-(4-phenylthiazol-2-yl)piperazin-1-yl)ethanone]
99.7%	99.5%	–	–	COc1cc(C)c(S(=O)(=O)N2CCCCC2COCC(=O)N2CCC(c3cccnc3)C2)c(C)c1 (stereo not drawn) [Example 237, 2-((1-(4-methoxy-2,6-dimethylphenylsulfonyl)piperidin-2-yl)methoxy)-1-(3-(pyridin-3-yl)pyrrolidin-1-yl)ethanone]
104%	99.2%	–	–	COc1cccc(N2CCN(C(=O)COCC3CCCN3S(=O)(=O)c3c(C)cc(OC)cc3C)CC2)c1 (stereo not drawn) [Example 306, 2-((1-(4-methoxy-2,6-dimethylphenylsulfonyl)pyrrolidin-2-yl)methoxy)-1-(4-(3-methoxyphenyl)piperazin-1-yl)ethanone]
95.5%	101%	–	–	COc1cc(C)c(S(=O)(=O)N2CCCC2COCC(=O)N2CCN(c3cccc(Cl)c3)CC2)c(C)c1 (stereo not drawn) [Example 346, 1-(4-(3-chlorophenyl)piperazin-1-yl)-2-((1-(4-methoxy-2,6-dimethylphenylsulfonyl)pyrrolidin-2-yl)methoxy)ethanone]
64.8%	0%	–	–	COc1cccc(N2CCN(C(=O)COCC3CCCCN3S(=O)(=O)c3ccc(Cl)c(Cl)c3)CC2)c1 (stereo not drawn) [Example 53, 2-[1-(3,4-dichloro-phenylsulfonyl)-piperidin-2-ylmethoxy]-1-[4-(3-methoxy-phenyl)-piperazin-1-yl]-ethanone]
38%	89.6%	–	–	COc1ccc(S(=O)(=O)N2CCCCC2CCOCC(=O)N2CCN(CCN3CCCCC3)CC2)cc1 (stereo not drawn) [Example 221, 2-(2-(1-(4-methoxyphenylsulfonyl)piperidin-2-yl)ethoxy)-1-(4-(2-(piperidin-1-yl)ethyl)piperazin-1-yl)ethanone]
–	–	75.25%	99.75%	COc1cc(C)c(S(=O)(=O)N2CCCCC2COCC(=O)Nc2cccc3cnccc23)c(C)c1 (stereo not drawn) [Example 258]
107%	100%	–	–	COc1cc(C)c(S(=O)(=O)N2CCCCC2COCC(=O)N2CCN(CCC3CCN(C)CC3)CC2)c(C)c1 (stereo not drawn) [Example 212, 2-((1-(4-methoxy-2,6-dimethylphenylsulfonyl)piperidin-2-yl)methoxy)-1-(4-(2-(1-methylpiperidin-4-yl)ethyl)piperazin-1-yl)ethanone]
104%	101%	–	–	O=C(COCC1CCCN1S(=O)(=O)c1c(Cl)cc(Cl)cc1Cl)NCC1CCCN(Cc2ccccc2)C1 (stereo not drawn) [Example 327, N-((1-benzylpiperidin-3-yl)methyl)-2-((1-(2,4,6-trichlorophenylsulfonyl)pyrrolidin-2-yl)methoxy)acetamide]
99.9%	99.3%	–	–	COc1cc(C)c(S(=O)(=O)N2CCCCC2COCC(=O)NCCC2CCN(c3ccncc3)CC2)c(C)c1 (stereo not drawn) [Example 143, 2-((1-(4-methoxy-2,6-dimethylphenylsulfonyl)piperidin-2-yl)methoxy)-N-(2-(1-(pyridin-4-yl)piperidin-4-yl)ethyl)acetamide]
102%	86.7%	–	–	CN1CCN(C2CCN(C(=O)COCC3Cc4ccccc4CN3S(=O)(=O)c3ccc(Cl)cc3Cl)CC2)CC1 (stereo not drawn) [Example 233, 2-((2-(2,4-dichlorophenylsulfonyl)-1,2,3,4-tetrahydroisoquinolin-3-yl)methoxy)-1-(4-(4-methylpiperazin-1-yl)piperidin-1-yl)ethanone]
59.6%	34%	–	–	CN1CCC(N2CCN(C(=O)COCC3CCCN3S(=O)(=O)c3ccc(Cl)c(Cl)c3)CC2)CC1 (stereo not drawn) [Example 62, 2-[1-(3,4-dichloro-phenylsulfonyl)-pyrrolidin-2-ylmethoxy]-1-[4-(1-methyl-piperidin-4-yl)-piperazin-1-yl]-ethanone]
104%	98.1%	–	–	COc1cc(C)c(S(=O)(=O)N2CCCC2COCC(=O)N2CCN(c3ccncc3)CC2)c(C)c1 (stereo not drawn) [Example 274, 2-((1-(4-methoxy-2,6-dimethylphenylsulfonyl)pyrrolidin-2-yl)methoxy)-1-(4-(pyridin-4-yl)piperazin-1-yl)ethanone]
–	–	105.09%	103.58%	O=C(COCC1CCCN1S(=O)(=O)c1c(Cl)cc(Cl)cc1Cl)N1CCC(N2CCCCC2)CC1 (stereo not drawn) [Example 298, 1-(1,4′-bipiperidin-1-yl)-2-((1-(2,4,6-trichlorophenylsulfonyl)pyrrolidin-2-yl)methoxy)ethanone]
101%	103%	–	–	O=C(COCC1CCCN1S(=O)(=O)c1c(Cl)cccc1Cl)N1CCN(Cc2ccc(Br)cc2)CC1 (stereo not drawn) [Example 358, 1-(4-(4-bromobenzyl)piperazin-1-yl)-2-((1-(2,6-dichlorophenylsulfonyl)pyrrolidin-2-yl)methoxy)ethanone]
